Values of other authors as cited in US20070224228A1, “Soap Bars Having Ultraviolet Radiation Protection” (priority 2004, published 2007).

Conditions: partition coefficient; solvents octanol and water; values printed as approximate (˜)

CCCCC(CC)COC(=O)C(C#N)=C(c1ccccc1)c1ccccc1 (centres unmarked) [Octocrylene]
Log P: ~6.9

Cyclomethicone
Log P: ~5.7
